This series concerns RPTEC/TERT1 and NRK-52E cells. As to the kind of experiment: In vitro key event assays (LAMP-1/2, cathepsin D, cell viability) compared across both cell models. Type of series: cell-based, human and rat. How it is done:
Cells were plated into 96-well tissue culture plates (10,000 cells per well) and were allowed to grow for 48 h (NRK-52E) respectively 10 d (RPTEC/TERT1) prior to 24 h treatment with model stressors. Stock solution for each compound (2000 µM) was prepared in growth medium and serial dilutions (1:1) were made before each experiment. At the end of the 24 h treatment, cell viability was measured using the CellTiter-Glo® assay (Promega). CellTiter-Glo® reagents and buffer were mixed under light-protected conditions and 100 µL CellTiter-Glo® solution was added directly to each well followed by 2 min incubation on an orbital shaker and 10 min incubation at room temperature in the dark to stabilize the luminescence signal. The suspension was mixed via pipetting and 50 µL were transferred into white 96-well plates (PerkinElmer Inc.). The luminescence signal was measured on a multiplate reader (Mithras LB 940; Berthold). Each assay was performed in three independent experiments carried out in triplicates.
For immunocytochemistry experiments, cells were seeded into 8-well chamber slides (Ibidi) at a density of 140 cells per µL in 300 µL growth medium and were allowed to grow for 48 h (NRK-52E) or 10 d (RPTEC/TERT1) respectively. For treatment, stock solutions (1,000 µM) of compounds dissolved in growth medium were freshly prepared and serial dilutions were made before exposure of cells for 24 h. After treatment, cells were washed twice with 150 µL PBS and fixed with 150 µL 4% paraformaldehyde in 1 x PBS for 10 min at room temperature. After fixation, cells were washed 10 min with 150 µL PBS on an orbital shaker followed by permeabilization with 150 µL 0.2% Triton X-100 in 1 x PBS for 5 min at room temperature on an orbital shaker. The permeabilized cells were washed twice with 1 x PBS (150 µL) for 10 min at room temperature on an orbital shaker and then incubated with 150 µL 5% BSA dissolved in 1 x PBS for 1 h at room temperature to block unspecific binding sites. After blocking, 100 µL primary antibody diluted 1:100 in 1% BSA in 1 x PBS were directly pipetted onto the cells and incubated overnight at 4°C. The following antibodies were employed for NRK-52E cells: Anti-LAMP-1 monoclonal IgG1 kappa mouse antibody (Santa Cruz; sc-20011), anti-Cathepsin D mouse monoclonal IgG2 kappa antibody (Santa Cruz; sc-377124); for RPTEC/TERT1 cells: Anti-LAMP-2 monoclonal mouse antibody (Santa Cruz; sc-18822), anti-Cathepsin D mouse monoclonal IgG2b kappa (Novus Biologicals; NBP1-04278); for both cell lines anti-megalin mouse monoclonal IgG1 antibody (Santa Cruz, sc-515772).
After incubation with primary antibody, cells were washed three times for 15 min with 0.2% Tween in 1 x PBS (150 µL) on an orbital shaker. Cells were incubated for 1 h at room temperature with 100 µL CFL 488-conjugated mouse IgG kappa binding protein (1:50) (m-IgGκ BP-CFL 488; Santa Cruz, sc-516176). After incubation the cells were washed three times for 15 min with 0.2% Tween in 1 x PBS on an orbital shaker and once with 150 µL sterile water. Phalloidin-tetramethylrhodamine B isothiocyanate (TRITC) was used to stain the cytoskeleton and was diluted in 100% methanol to a stock concentration of 0.1 mg/ml and further diluted in 1 x PBS to a working concentration of 0.095 µM. After cells were washed once with 1 x PBS for 10 min at room temperature 150 µL phalloidin-TRITC working solution was added and the cells were incubated on an orbital shaker at room temperature for 60–90 min. After incubation, phalloidin-TRITC solution was aspirated, and the cells were washed once with 1 x PBS. Chamber slides were allowed to dry for 15 min at room temperature. To preserve fluorescence 50–100 µL DAPI mounting medium (Vectashield®; Vectorlab, Biozol) was added to the cells and chamber slides were stored at 4°C in the dark until image acquisition. […]

One substance from paper PMC9061999, “Application of the Adverse Outcome Pathway Concept to In Vitro Nephrotoxicity Assessment: Kidney Injury due to Receptor-Mediated Endocytosis and Lysosomal Overload as a Case Study” (Frontiers in Toxicology, 2022) can be followed below.

As to Polymyxin B, under “24 h treatment, cell viability”, the “Cytotoxicity compared between RPTEC/TERT1 and NRK-52E cells” value was “RPTEC/TERT1 cells were found to be significantly more sensitive”. Where the note is “RPTEC/TERT1 and NRK-52E, 24 h”, the “Rank order of effects of the 3 polymyxin derivatives across all KEs” value was “most active”. For the same substance, the “Effect on cathepsin D fluorescence intensity (KE2)” value (RPTEC/TERT1 and NRK-52E, 24 h, immunocytochemistry, quantitative image analysis) is reported as “concentration-dependent decrease in fluorescence intensity”. Further, the “Effect on LAMP-1/2 expression (KE1)” value (RPTEC/TERT1 and NRK-52E, 24 h, immunofluorescence image analysis) is given as “significant, concentration-dependent increase in LAMP-1/2 expression”. The “Effect on cell viability / cytotoxicity (KE3)” value (RPTEC/TERT1 and NRK-52E, 24 h treatment, CellTiter-Glo) is listed as “concentration-dependent decrease in cell viability”.
